The NIST ThermoML archive (doi:10.1021/je034087q)
± gives the expanded uncertainty stated by the source.

Test: xn = mol fraction of the nth substance listed
Conditions: 323.15 K

With CCCCC [pentane] + O=C=O the mass density (9400 kPa, Fluid (supercritical or subcritical phases), x2 = 0.939) was 522 ± 3 kg/m3, the mass density (9410 kPa, Fluid (supercritical or subcritical phases), x2 = 0.916) was 590 ± 4 kg/m3 and the mass density (9440 kPa, Fluid (supercritical or subcritical phases), x2 = 0.87) was 630 ± 4 kg/m3. For the same molecule, the mass density (9480 kPa, Fluid (supercritical or subcritical phases), x2 = 0.901) was 601 ± 4 kg/m3, the mass density (9510 kPa, Fluid (supercritical or subcritical phases), x2 = 0.939) was 534 ± 3 kg/m3 and the mass density (9550 kPa, Fluid (supercritical or subcritical phases), x2 = 0.791) was 688 ± 4 kg/m3. For the same molecule, the mass density (9560 kPa, Fluid (supercritical or subcritical phases), x2 = 0.671) was 726 ± 5 kg/m3, the mass density (9600 kPa, Fluid (supercritical or subcritical phases), x2 = 0.901) was 607 ± 4 kg/m3 and the mass density (9630 kPa, Fluid (supercritical or subcritical phases), x2 = 0.916) was 603 ± 4 kg/m3. The mass density (9630 kPa, Fluid (supercritical or subcritical phases), x2 = 0.939) was 545 ± 3 kg/m3, the mass density (9670 kPa, Fluid (supercritical or subcritical phases), x2 = 0.87) was 638 ± 4 kg/m3 and the mass density (9740 kPa, Fluid (supercritical or subcritical phases), x2 = 0.214) was 631 ± 4 kg/m3. The mass density (9740 kPa, Fluid (supercritical or subcritical phases), x2 = 0.901) was 613 ± 4 kg/m3, the mass density (9790 kPa, Fluid (supercritical or subcritical phases), x2 = 0.939) was 558 ± 4 kg/m3 and the mass density (9920 kPa, Fluid (supercritical or subcritical phases), x2 = 0.901) was 619 ± 4 kg/m3. For the same molecule, the mass density (9940 kPa, Fluid (supercritical or subcritical phases), x2 = 0.916) was 615 ± 4 kg/m3, the mass density (9970 kPa, Fluid (supercritical or subcritical phases), x2 = 0.939) was 572 ± 4 kg/m3 and the mass density (10000 kPa, Fluid (supercritical or subcritical phases), x2 = 0.901) was 622 ± 4 kg/m3. It also gave a mass density (10010 kPa, Fluid (supercritical or subcritical phases), x2 = 0.87) of 645 ± 4 kg/m3, a mass density (10080 kPa, Fluid (supercritical or subcritical phases), x2 = 0.901) of 626 ± 4 kg/m3 and a mass density (10160 kPa, Fluid (supercritical or subcritical phases), x2 = 0.901) of 628 ± 4 kg/m3. The mass density (10170 kPa, Fluid (supercritical or subcritical phases), x2 = 0.939) was 586 ± 4 kg/m3, the mass density (10240 kPa, Fluid (supercritical or subcritical phases), x2 = 0.36) was 651 ± 4 kg/m3 and the mass density (10270 kPa, Fluid (supercritical or subcritical phases), x2 = 0.901) was 633 ± 4 kg/m3. The mass density (10290 kPa, Fluid (supercritical or subcritical phases), x2 = 0.791) was 697 ± 4 kg/m3, the mass density (10300 kPa, Fluid (supercritical or subcritical phases), x2 = 0.916) was 628 ± 4 kg/m3 and the mass density (10420 kPa, Fluid (supercritical or subcritical phases), x2 = 0.87) was 654 ± 4 kg/m3. The mass density (10420 kPa, Fluid (supercritical or subcritical phases), x2 = 0.901) was 637 ± 4 kg/m3, the mass density (10440 kPa, Fluid (supercritical or subcritical phases), x2 = 0.939) was 600 ± 4 kg/m3 and the mass density (10620 kPa, Fluid (supercritical or subcritical phases), x2 = 0.901) was 642 ± 4 kg/m3. For the same molecule, the mass density (10710 kPa, Fluid (supercritical or subcritical phases), x2 = 0.671) was 734 ± 5 kg/m3, the mass density (10730 kPa, Fluid (supercritical or subcritical phases), x2 = 0.916) was 642 ± 4 kg/m3 and the mass density (10760 kPa, Fluid (supercritical or subcritical phases), x2 = 0.901) was 647 ± 4 kg/m3. For the same molecule, the mass density (10790 kPa, Fluid (supercritical or subcritical phases), x2 = 0.939) was 616 ± 4 kg/m3, the mass density (10850 kPa, Fluid (supercritical or subcritical phases), x2 = 0.87) was 661 ± 4 kg/m3 and the mass density (10950 kPa, Fluid (supercritical or subcritical phases), x2 = 0.901) was 652 ± 4 kg/m3. For the same molecule, the mass density (11040 kPa, Fluid (supercritical or subcritical phases), x2 = 0.791) was 703 ± 4 kg/m3, the mass density (11060 kPa, Fluid (supercritical or subcritical phases), x2 = 0.214) was 634 ± 4 kg/m3 and the mass density (11220 kPa, Fluid (supercritical or subcritical phases), x2 = 0.901) was 656 ± 4 kg/m3. For the same molecule, the mass density (11230 kPa, Fluid (supercritical or subcritical phases), x2 = 0.36) was 654 ± 4 kg/m3, the mass density (11250 kPa, Fluid (supercritical or subcritical phases), x2 = 0.939) was 635 ± 4 kg/m3 and the mass density (11260 kPa, Fluid (supercritical or subcritical phases), x2 = 0.916) was 657 ± 4 kg/m3. It also gave a mass density (11320 kPa, Fluid (supercritical or subcritical phases), x2 = 0.939) of 639 ± 4 kg/m3, a mass density (11440 kPa, Fluid (supercritical or subcritical phases), x2 = 0.901) of 661 ± 4 kg/m3 and a mass density (11450 kPa, Fluid (supercritical or subcritical phases), x2 = 0.87) of 670 ± 4 kg/m3. For the same molecule, the mass density (11610 kPa, Fluid (supercritical or subcritical phases), x2 = 0.901) was 666 ± 4 kg/m3, the mass density (11890 kPa, Fluid (supercritical or subcritical phases), x2 = 0.901) was 672 ± 4 kg/m3 and the mass density (11910 kPa, Fluid (supercritical or subcritical phases), x2 = 0.791) was 713 ± 4 kg/m3. The mass density (11930 kPa, Fluid (supercritical or subcritical phases), x2 = 0.916) was 672 ± 4 kg/m3, the mass density (11970 kPa, Fluid (supercritical or subcritical phases), x2 = 0.87) was 678 ± 4 kg/m3 and the mass density (11980 kPa, Fluid (supercritical or subcritical phases), x2 = 0.671) was 740 ± 5 kg/m3. It also gave a mass density (12080 kPa, Fluid (supercritical or subcritical phases), x2 = 0.901) of 675 ± 4 kg/m3, a mass density (12440 kPa, Fluid (supercritical or subcritical phases), x2 = 0.901) of 681 ± 4 kg/m3 and a mass density (12460 kPa, Fluid (supercritical or subcritical phases), x2 = 0.36) of 656 ± 4 kg/m3. The mass density (12560 kPa, Fluid (supercritical or subcritical phases), x2 = 0.214) was 638 ± 4 kg/m3, the mass density (12580 kPa, Fluid (supercritical or subcritical phases), x2 = 0.87) was 687 ± 4 kg/m3 and the mass density (12760 kPa, Fluid (supercritical or subcritical phases), x2 = 0.901) was 686 ± 4 kg/m3. The mass density (12790 kPa, Fluid (supercritical or subcritical phases), x2 = 0.916) was 687 ± 4 kg/m3, the mass density (13000 kPa, Fluid (supercritical or subcritical phases), x2 = 0.901) was 690 ± 4 kg/m3 and the mass density (13060 kPa, Fluid (supercritical or subcritical phases), x2 = 0.791) was 721 ± 5 kg/m3. For the same molecule, the mass density (13280 kPa, Fluid (supercritical or subcritical phases), x2 = 0.901) was 695 ± 4 kg/m3, the mass density (13290 kPa, Fluid (supercritical or subcritical phases), x2 = 0.87) was 695 ± 4 kg/m3 and the mass density (13530 kPa, Fluid (supercritical or subcritical phases), x2 = 0.901) was 698 ± 4 kg/m3. It also gave a mass density (13560 kPa, Fluid (supercritical or subcritical phases), x2 = 0.36) of 659 ± 4 kg/m3, a mass density (13800 kPa, Fluid (supercritical or subcritical phases), x2 = 0.671) of 749 ± 5 kg/m3 and a mass density (13800 kPa, Fluid (supercritical or subcritical phases), x2 = 0.901) of 701 ± 4 kg/m3. For the same molecule, the mass density (13860 kPa, Fluid (supercritical or subcritical phases), x2 = 0.214) was 640 ± 4 kg/m3, the mass density (13860 kPa, Fluid (supercritical or subcritical phases), x2 = 0.916) was 705 ± 4 kg/m3 and the mass density (14040 kPa, Fluid (supercritical or subcritical phases), x2 = 0.87) was 704 ± 4 kg/m3. It also gave a mass density (14050 kPa, Fluid (supercritical or subcritical phases), x2 = 0.901) of 705 ± 4 kg/m3, a mass density (14440 kPa, Fluid (supercritical or subcritical phases), x2 = 0.901) of 712 ± 4 kg/m3 and a mass density (14470 kPa, Fluid (supercritical or subcritical phases), x2 = 0.916) of 715 ± 4 kg/m3. It also gave a mass density (14510 kPa, Fluid (supercritical or subcritical phases), x2 = 0.791) of 732 ± 5 kg/m3, a mass density (14700 kPa, Fluid (supercritical or subcritical phases), x2 = 0.901) of 714 ± 4 kg/m3 and a mass density (14730 kPa, Fluid (supercritical or subcritical phases), x2 = 0.87) of 713 ± 4 kg/m3. For the same molecule, the mass density (14810 kPa, Fluid (supercritical or subcritical phases), x2 = 0.36) was 662 ± 4 kg/m3, the mass density (15220 kPa, Fluid (supercritical or subcritical phases), x2 = 0.214) was 642 ± 4 kg/m3 and the mass density (Liquid, Other PVT measurement, x2 = 0.214) was 603 ± 2 kg/m3. For the same molecule, the mass density (Liquid, Other PVT measurement, x2 = 0.36) was 632 ± 2 kg/m3, the mass density (Liquid, Other PVT measurement, x2 = 0.671) was 702 ± 2 kg/m3 and the mass density (Liquid, Other PVT measurement, x2 = 0.791) was 651 ± 2 kg/m3. The mass density (Liquid, Other PVT measurement, x2 = 0.87) was 573 ± 2 kg/m3 and the mass density (Liquid, Other PVT measurement, x2 = 0.901) was 511 ± 2 kg/m3.
